Data taken from ChEMBL document CHEMBL3400015, “Tertiary amides of Salinomycin: A new group of antibacterial agents against Bacillus anthracis and methicillin-resistant Staphylococcus epidermidis” (Bioorg Med Chem Lett, 2015).
≈ marks a conversion by molar mass, not a printed value.

Assays:
Assay type in all cases: functional
[1] = tested on: Staphylococcus epidermidis; test: Bactericidal activity against methicillin-resistant Staphylococcus epidermidis isolate 422/10 after 24 hrs; settings: isolate 422/10, 24 h, read-out: MBC99.9
[2] = tested on: Staphylococcus epidermidis; test: Bactericidal activity against methicillin-resistant Staphylococcus epidermidis isolate 469/11 after 24 hrs; settings: isolate 469/11, 24 h, read-out: MBC99.9
Staphylococcus aureus [3] = test: Antimicrobial activity against Staphylococcus aureus ATCC 6538 after 18 hrs by twofold serial broth dilution method; settings: ATCC 6538, 18 h
[4] = tested on: Staphylococcus epidermidis; test: Antimicrobial activity against methicillin-resistant Staphylococcus epidermidis isolate 409/10 after 18 hrs by twofold serial broth dilution method; settings: isolate 409/10, 18 h
[5] = tested on: Staphylococcus epidermidis; test: Antimicrobial activity against methicillin-resistant Staphylococcus epidermidis isolate 404/10 after 18 hrs by twofold serial broth dilution method; settings: isolate 404/10, 18 h
[6] = tested on: Staphylococcus epidermidis; test: Antimicrobial activity against Staphylococcus epidermidis ATCC 12228 after 18 hrs by twofold serial broth dilution method; settings: ATCC 12228, 18 h
Staphylococcus aureus [7] = test: Antimicrobial activity against Staphylococcus aureus NCTC 4163 after 18 hrs by twofold serial broth dilution method; settings: NCTC 4163, 18 h
[8] = tested on: Staphylococcus epidermidis; test: Bactericidal activity against methicillin-resistant Staphylococcus epidermidis isolate 409/10 after 24 hrs; settings: isolate 409/10, 24 h, read-out: MBC99.9
[9] = tested on: Staphylococcus epidermidis; test: Antimicrobial activity against methicillin-resistant Staphylococcus epidermidis isolate 461/11 after 18 hrs by twofold serial broth dilution method; settings: isolate 461/11, 18 h
[10] = tested on: Staphylococcus epidermidis; test: Bactericidal activity against methicillin-resistant Staphylococcus epidermidis isolate 454/11 after 24 hrs; settings: isolate 454/11, 24 h, read-out: MBC99.9
[11] = tested on: Staphylococcus epidermidis; test: Bactericidal activity against methicillin-resistant Staphylococcus epidermidis isolate 457/11 after 24 hrs; settings: isolate 457/11, 24 h, read-out: MBC99.9
[12] = tested on: Staphylococcus epidermidis; test: Bactericidal activity against methicillin-resistant Staphylococcus epidermidis isolate 405/10 after 24 hrs; settings: isolate 405/10, 24 h, read-out: MBC99.9
[13] = tested on: Staphylococcus epidermidis; test: Antimicrobial activity against methicillin-resistant Staphylococcus epidermidis isolate 405/10 after 18 hrs by twofold serial broth dilution method; settings: isolate 405/10, 18 h
[14] = tested on: Staphylococcus epidermidis; test: Bactericidal activity against methicillin-resistant Staphylococcus epidermidis isolate 470/11 after 24 hrs; settings: isolate 470/11, 24 h, read-out: MBC99.9
Staphylococcus aureus [15] = test: Bactericidal activity against Staphylococcus aureus ATCC 25923 after 24 hrs; settings: ATCC 25923, 24 h, read-out: MBC99.9

## CC[C@@H](C(=O)[C@@H](C)[C@@H](O)[C@H](C)[C@@H]1O[C@@H]([C@@H](CC)C(=O)N(Cc2ccccc2)Cc2ccccc2)CC[C@@H]1C)[C@H]1O[C@]2(C=C[C@@H](O)[C@]3(CC[C@@](C)([C@H]4CC[C@](O)(CC)[C@H](C)O4)O3)O2)[C@H](C)C[C@@H]1C
[1]
  MBC: 256 µg/mL (≈ 275 µM)
[2]
  MBC: > 256 µg/mL
Staphylococcus aureus [3]
  MIC: 16 µg/mL (≈ 17.2 µM)
[4]
  MIC: 16 µg/mL (≈ 17.2 µM)
[5]
  MIC: 32 µg/mL (≈ 34.4 µM)
[6]
  MIC: 16 µg/mL (≈ 17.2 µM)
Staphylococcus aureus [7]
  MIC: 16 µg/mL (≈ 17.2 µM)
[8]
  MBC: 256 µg/mL (≈ 275 µM)
[9]
  MIC: 32 µg/mL (≈ 34.4 µM)
[10]
  MBC: 128 µg/mL (≈ 138 µM)
[11]
  MBC: 256 µg/mL (≈ 275 µM)
[12]
  MBC: 128 µg/mL (≈ 138 µM)
[13]
  MIC: 8 µg/mL (≈ 8.6 µM)
[14]
  MBC: > 256 µg/mL
Staphylococcus aureus [15]
  MBC: 128 µg/mL (≈ 138 µM)

## CC[C@@H](C(=O)[C@@H](C)[C@@H](O)[C@H](C)[C@@H]1O[C@@H]([C@@H](CC)C(=O)N2CCOCC2)CC[C@@H]1C)[C@H]1O[C@]2(C=C[C@@H](O)[C@]3(CC[C@@](C)([C@H]4CC[C@](O)(CC)[C@H](C)O4)O3)O2)[C@H](C)C[C@@H]1C
[1]
  MBC: > 256 µg/mL
[2]
  MBC: > 256 µg/mL
Staphylococcus aureus [3]
  MIC: 128 µg/mL (≈ 156 µM)
[4]
  MIC: 256 µg/mL (≈ 312 µM)
[5]
  MIC: 256 µg/mL (≈ 312 µM)
[6]
  MIC: 128 µg/mL (≈ 156 µM)
Staphylococcus aureus [7]
  MIC: 256 µg/mL (≈ 312 µM)
[8]
  MBC: > 256 µg/mL
[9]
  MIC: > 256 µg/mL
[10]
  MBC: > 256 µg/mL
[11]
  MBC: > 256 µg/mL
[12]
  MBC: > 256 µg/mL
[13]
  MIC: 256 µg/mL (≈ 312 µM)
[14]
  MBC: > 256 µg/mL
Staphylococcus aureus [15]
  MBC: > 256 µg/mL

## CC[C@@H](C(=O)[C@@H](C)[C@@H](O)[C@H](C)[C@@H]1O[C@@H]([C@@H](CC)C(=O)N(CCOC)CCOC)CC[C@@H]1C)[C@H]1O[C@]2(C=C[C@@H](O)[C@]3(CC[C@@](C)([C@H]4CC[C@](O)(CC)[C@H](C)O4)O3)O2)[C@H](C)C[C@@H]1C
[1]
  MBC: > 256 µg/mL
[2]
  MBC: > 256 µg/mL
Staphylococcus aureus [3]
  MIC: 64 µg/mL (≈ 73.9 µM)
[4]
  MIC: 128 µg/mL (≈ 148 µM)
[5]
  MIC: 128 µg/mL (≈ 148 µM)
[6]
  MIC: 128 µg/mL (≈ 148 µM)
Staphylococcus aureus [7]
  MIC: 64 µg/mL (≈ 73.9 µM)
[8]
  MBC: > 256 µg/mL
[9]
  MIC: 256 µg/mL (≈ 296 µM)
[10]
  MBC: > 256 µg/mL
[11]
  MBC: > 256 µg/mL
[12]
  MBC: > 256 µg/mL
[13]
  MIC: 256 µg/mL (≈ 296 µM)
[14]
  MBC: > 256 µg/mL
Staphylococcus aureus [15]
  MBC: > 256 µg/mL

## CCCCN(CCCC)C(=O)[C@H](CC)[C@H]1CC[C@H](C)[C@H]([C@@H](C)[C@H](O)[C@H](C)C(=O)[C@H](CC)[C@H]2O[C@]3(C=C[C@@H](O)[C@]4(CC[C@@](C)([C@H]5CC[C@](O)(CC)[C@H](C)O5)O4)O3)[C@H](C)C[C@@H]2C)O1
[1]
  MBC: 256 µg/mL (≈ 297 µM)
[2]
  MBC: > 256 µg/mL
Staphylococcus aureus [3]
  MIC: 8 µg/mL (≈ 9.28 µM)
[4]
  MIC: 16 µg/mL (≈ 18.6 µM)
[5]
  MIC: 8 µg/mL (≈ 9.28 µM)
[6]
  MIC: 8 µg/mL (≈ 9.28 µM)
Staphylococcus aureus [7]
  MIC: 8 µg/mL (≈ 9.28 µM)
[8]
  MBC: > 256 µg/mL
[9]
  MIC: 8 µg/mL (≈ 9.28 µM)
[10]
  MBC: 128 µg/mL (≈ 148 µM)
[11]
  MBC: 256 µg/mL (≈ 297 µM)
[12]
  MBC: 128 µg/mL (≈ 148 µM)
[13]
  MIC: 4 µg/mL (≈ 4.64 µM)
[14]
  MBC: > 256 µg/mL
Staphylococcus aureus [15]
  MBC: 256 µg/mL (≈ 297 µM)

## CCCCCCCCN(CCCCCCCC)C(=O)[C@H](CC)[C@H]1CC[C@H](C)[C@H]([C@@H](C)[C@H](O)[C@H](C)C(=O)[C@H](CC)[C@H]2O[C@]3(C=C[C@@H](O)[C@]4(CC[C@@](C)([C@H]5CC[C@](O)(CC)[C@H](C)O5)O4)O3)[C@H](C)C[C@@H]2C)O1
[1]
  MBC: > 256 µg/mL
[2]
  MBC: > 256 µg/mL
Staphylococcus aureus [3]
  MIC: 128 µg/mL (≈ 131 µM)
[4]
  MIC: > 256 µg/mL
[5]
  MIC: 256 µg/mL (≈ 263 µM)
[6]
  MIC: 128 µg/mL (≈ 131 µM)
Staphylococcus aureus [7]
  MIC: 256 µg/mL (≈ 263 µM)
[8]
  MBC: > 256 µg/mL
[9]
  MIC: > 256 µg/mL
[10]
  MBC: > 256 µg/mL
[11]
  MBC: > 256 µg/mL
[12]
  MBC: > 256 µg/mL
[13]
  MIC: > 256 µg/mL
[14]
  MBC: > 256 µg/mL
Staphylococcus aureus [15]
  MBC: > 256 µg/mL
